From PubChem BioAssay AID248 (DTP/NCI, 2004)
Several values for one entry are separate records, joined by “and”; a condition that tells them apart may be missing. Equal entries are not always repeated. Toxic doses and inconclusive results are not listed. Rule as the data show it: active = T/C of 150% or more; inactive = T/C below 125%.

Tested on: L1210 leukemia ip in BDF1 mice, survival T/C
Test: NCI In Vivo Anticancer Drug Screen. Data for tumor model L1210 Leukemia (intraperitoneal) in B6D2F1 (BDF1) mice
Details: endpoint: mean survival time, higher = longer survival
How it was run: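 Ratio derived from survival: compound-dosed mice over vehicle-dosed mice, all bearing a transplantable tumor.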

[1] = dose: 100.0 mg/kg/injection, schedule: Q01DX009 (ip), vehicle: saline
[2] = dose: 100.0 mg/kg/injection, schedule: Q04DX003 (ip), vehicle: saline
[3] = dose: 100.0 mg/kg/injection, schedule: Q04DX003 (ip), vehicle: Klucel (hydroxypropylcellulose) (HPC)
[4] = dose: 200.0 mg/kg/injection, schedule: Q04DX003 (ip), vehicle: Klucel (hydroxypropylcellulose) (HPC)
[5] = dose: 400.0 mg/kg/injection, schedule: Q04DX003 (ip), vehicle: Klucel (hydroxypropylcellulose) (HPC)
[6] = dose: 50.0 mg/kg/injection, schedule: Q04DX003 (ip), vehicle: Klucel (hydroxypropylcellulose) (HPC)
[7] = dose: 100.0 mg/kg/injection, schedule: Q01DX009 (ip), vehicle: Klucel (hydroxypropylcellulose) (HPC)
[8] = dose: 200.0 mg/kg/injection, schedule: Q01DX009 (ip), vehicle: Klucel (hydroxypropylcellulose) (HPC)
[9] = dose: 400.0 mg/kg/injection, schedule: Q01DX009 (ip), vehicle: Klucel (hydroxypropylcellulose) (HPC)
[10] = dose: 100.0 mg/kg/injection, schedule: Q04DX003 (ip), vehicle: saline with Tween-80
[11] = dose: 200.0 mg/kg/injection, schedule: Q04DX003 (ip), vehicle: saline with Tween-80
[12] = dose: 400.0 mg/kg/injection, schedule: Q04DX003 (ip), vehicle: saline with Tween-80
[13] = dose: 100.0 mg/kg/injection, schedule: Q04DX002 (ip), vehicle: saline with Tween-80
[14] = dose: 25.0 mg/kg/injection, schedule: Q01DX009 (ip), vehicle: saline with Tween-80
[15] = dose: 50.0 mg/kg/injection, schedule: Q01DX009 (ip), vehicle: saline with Tween-80
[16] = dose: 100.0 mg/kg/injection, schedule: Q01DX009 (ip), vehicle: saline with Tween-80
[17] = dose: 100.0 mg/kg/injection, schedule: Q01DX009 (ip), vehicle: carboxymethylcellulose (CMC)
[18] = dose: 200.0 mg/kg/injection, schedule: Q01DX009 (ip), vehicle: carboxymethylcellulose (CMC)
[19] = dose: 400.0 mg/kg/injection, schedule: Q01DX009 (ip), vehicle: carboxymethylcellulose (CMC)

Measured: T/C

CCN(CC)CC(=O)NCC(CCN(C)C)(c1ccc2ccccc2c1)C(C)C (centres undefined)
inactive: dose: 25.0 mg/kg/injection, schedule: Q04DX003 (ip), vehicle: saline 99 % of control | dose: 50.0 mg/kg/injection, schedule: Q04DX002 (ip), vehicle: saline 97 % of control | dose: 50.0 mg/kg/injection, schedule: Q04DX003 (ip), vehicle: saline 94 % of control | [1] 98 % of control | dose: 100.0 mg/kg/injection, schedule: Q04DX002 (ip), vehicle: saline 106 % of control | [2] 97 % of control | dose: 200.0 mg/kg/injection, schedule: Q04DX002 (ip), vehicle: saline 86 % of control

Nc1nc2c(nnn2C2CC(CO)C(O)C2O)c(=O)[nH]1 (centres undefined)
inactive: dose: 100.0 mg/kg/injection, schedule: Q01DX001 (ip), vehicle: other 104 % of control | dose: 200.0 mg/kg/injection, schedule: Q01DX001 (ip), vehicle: other 105 % of control | dose: 400.0 mg/kg/injection, schedule: Q01DX001 (ip), vehicle: other 109 % of control

CN(C)c1ccc(Cc2ccc(N(C)C)nc2)cn1
inactive: [3] 110 % of control | [4] 102 % of control | [5] 100 % of control

CNS(=O)(=O)c1c(C)cccc1CC(=O)c1ccccc1
inactive: dose: 100.0 mg/kg/injection, schedule: Q01DX001 (ip), vehicle: steriod suspending solution 96 % of control | dose: 400.0 mg/kg/injection, schedule: Q01DX001 (ip), vehicle: steriod suspending solution 94 % of control

Cc1ccc(NC2=CCC(=O)OC2=O)cc1
inactive: dose: 25.0 mg/kg/injection, schedule: Q01DX009 (ip), vehicle: Klucel (hydroxypropylcellulose) (HPC) 93 % of control | dose: 25.0 mg/kg/injection, schedule: Q04DX003 (ip), vehicle: Klucel (hydroxypropylcellulose) (HPC) 100 % of control | dose: 50.0 mg/kg/injection, schedule: Q01DX009 (ip), vehicle: Klucel (hydroxypropylcellulose) (HPC) 88 % of control | [6] 105 % of control | [7] 90 % of control | [3] 97 % of control | [8] 97 % of control | [4] 97 % of control | [9] 88 % of control | [5] 92 % of control

O=C(Nc1ccc(C(=O)c2ccccc2)cc1)c1ccccc1
inactive: [3] 104 % of control | [4] 108 % of control | [5] 98 % of control

COCCNC(=O)NS(=O)(=O)c1ccc(C)cc1
inactive: [10] 98 % of control | [11] 98 % of control | [12] 96 % of control

CC(=NC(c1ccccc1)c1ccccc1)N(C)C
inactive: [13] 104 % of control

COc1ccc(OC)c(NC(=O)c2cccc(N(CCO)CCO)c2)c1
inactive: dose: 100.0 mg/kg/injection, schedule: Q01DX001 (ip), vehicle: carboxymethylcellulose (CMC) 102 % of control | dose: 200.0 mg/kg/injection, schedule: Q01DX001 (ip), vehicle: carboxymethylcellulose (CMC) 94 % of control | dose: 400.0 mg/kg/injection, schedule: Q01DX001 (ip), vehicle: carboxymethylcellulose (CMC) 94 % of control

CCCNC(=O)Oc1cccc(NC(=O)CC)c1
inactive: [14] 100 % of control | [15] 100 % of control | [16] 92 % of control

O=C(COc1ccc(Cl)c(Cl)c1)Nc1ccc[n+](Cc2ccc(Cl)cc2S(=O)(=O)F)c1
inactive: [10] 97 % of control | [11] 94 % of control | [12] 101 % of control

COc1cc2ccc3c4cc5c(cc4c[n+](C)c3c2cc1OC)OCO5
inactive: dose: 10.0 mg/kg/injection, schedule: Q01DX009 (ip), vehicle: saline 124 % of control | dose: 20.0 mg/kg/injection, schedule: Q01DX009 (ip), vehicle: saline 112 % of control | dose: 40.0 mg/kg/injection, schedule: Q01DX009 (ip), vehicle: saline 122 % of control

O=CNC(CSC(=O)c1ccccc1)C(=O)O (centres undefined)
inactive: [7] 101 % of control | [3] 97 % of control | [8] 101 % of control | [4] 97 % of control | [5] 94 % of control

N#CSc1ccc(NN)cc1
inactive: dose: 3.0 mg/kg/injection, schedule: Q01DX009 (ip), vehicle: saline with Tween-80 97 % of control | dose: 6.0 mg/kg/injection, schedule: Q01DX009 (ip), vehicle: saline with Tween-80 90 % of control | dose: 6.0 mg/kg/injection, schedule: Q04DX004 (ip), vehicle: saline with Tween-80 100 % of control | dose: 12.0 mg/kg/injection, schedule: Q01DX009 (ip), vehicle: saline with Tween-80 95 % of control | dose: 12.0 mg/kg/injection, schedule: Q04DX004 (ip), vehicle: saline with Tween-80 98 % of control | [14] 96 % of control | dose: 25.0 mg/kg/injection, schedule: Q04DX003 (ip), vehicle: saline with Tween-80 93 % of control | dose: 25.0 mg/kg/injection, schedule: Q04DX004 (ip), vehicle: saline with Tween-80 102 % of control

O=[N+]([O-])/C=C/c1ccccc1F
inactive: dose: 18.75 mg/kg/injection, schedule: Q04DX003 (ip), vehicle: Klucel (hydroxypropylcellulose) (HPC) 95 % of control | dose: 37.5 mg/kg/injection, schedule: Q04DX003 (ip), vehicle: Klucel (hydroxypropylcellulose) (HPC) 98 % of control | dose: 75.0 mg/kg/injection, schedule: Q04DX003 (ip), vehicle: Klucel (hydroxypropylcellulose) (HPC) 91 % of control

O=C1CSC(=S)N1c1ccc(Cl)c(Cl)c1
inactive: dose: 50.0 mg/kg/injection, schedule: Q04DX003 (ip), vehicle: saline with Tween-80 96 % of control | [10] 101 % of control | [11] 104 % of control

Cc1ccc2[nH]c(=S)n(-c3ccc(C)c(Cl)c3)c(=O)c2c1
inactive: [17] 95 % of control | dose: 100.0 mg/kg/injection, schedule: Q04DX002 (ip), vehicle: carboxymethylcellulose (CMC) 99 % of control and 89 % of control | [18] 93 % of control and 89 % of control | dose: 200.0 mg/kg/injection, schedule: Q04DX002 (ip), vehicle: carboxymethylcellulose (CMC) 96 % of control and 99 % of control | [19] 92 % of control and 89 % of control | dose: 400.0 mg/kg/injection, schedule: Q04DX002 (ip), vehicle: carboxymethylcellulose (CMC) 92 % of control

NCCc1ccc2c(c1)OCO2
inactive: dose: 25.0 mg/kg/injection, schedule: Q01DX009 (ip), vehicle: saline 109 % of control | dose: 50.0 mg/kg/injection, schedule: Q01DX009 (ip), vehicle: saline 107 % of control | [1] 100 % of control and 107 % of control | [2] 97 % of control | dose: 200.0 mg/kg/injection, schedule: Q04DX003 (ip), vehicle: saline 102 % of control

CCCCCC[C@@H](O)C/C=C\CCCCCCCC(=O)OC
inactive: dose: 100.0 mg/kg/injection, schedule: Q01DX001 (ip), vehicle: saline 97 % of control | dose: 200.0 mg/kg/injection, schedule: Q01DX001 (ip), vehicle: saline 97 % of control | dose: 400.0 mg/kg/injection, schedule: Q01DX001 (ip), vehicle: saline 103 % of control

O=C(/C=C/CBr)NC(Cc1ccccc1)C(=O)O (centres undefined)
inactive: dose: 75.0 mg/kg/injection, schedule: Q01DX001 (ip), vehicle: other 104 % of control

CCCCN(CCCC)S(=O)(=O)CC
inactive: [13] 100 % of control | dose: 200.0 mg/kg/injection, schedule: Q04DX002 (ip), vehicle: saline with Tween-80 98 % of control | dose: 400.0 mg/kg/injection, schedule: Q04DX002 (ip), vehicle: saline with Tween-80 95 % of control

O=C1OC(c2ccc([N+](=O)[O-])cc2)=N/C1=C\c1ccc(O)cc1
inactive: [7] 96 % of control | [8] 96 % of control | [9] 90 % of control

C=CC(C)(O)C(C)(C)C (centres undefined)
inactive: [15] 100 % of control | [16] 96 % of control | dose: 200.0 mg/kg/injection, schedule: Q01DX009 (ip), vehicle: saline with Tween-80 100 % of control

O=C(COc1cccc(Cl)c1)Nc1cccc(CN2C(=O)c3ccccc3C2=O)c1
inactive: [6] 96 % of control | [3] 98 % of control | [4] 95 % of control

COc1ccc(C(=O)NO)cc1
inactive: [17] 96 % of control | [18] 102 % of control | [19] 101 % of control

O=C1CC=Nc2ccc([N+](=O)[O-])cc21
inactive: [7] 101 % of control | [3] 98 % of control | [8] 97 % of control | [4] 109 % of control | [9] 101 % of control | [5] 108 % of control
